Measured values published in patent publication US20240423969A1, “SYNERGISTIC DRUG COMBINATIONS TO TREAT CANCER” (Mayo Foundation for Medical Education and Research, priority 2023, published 2024).

test system: HCC cell lines (HLE, HLF, and PLC/PRF5); experiment: Cell proliferation assay, three HCC cell lines; assay type: cell-based; settings: Homo sapiens, PLC-PRF-5, single agent, range over HLE, 96 hours, read-out: IC50 (concentration that inhibits proliferation of 50% cells)
Experimental: HCC cell lines (3×10^5 cells) were suspended in a 10 mL culture medium and seeded onto 96-well black plates at 100 μL per well (Corning Incorporated, Corning, NY, USA). The next day, SSI-4, cabozantinib, and/or lenvatinib were added in concentrations ranging from 120 μM to 0.1 nM and incubated with cells for 96 hours. After incubation times, the media was discarded, and cells were washed with 100 μL PBS, dried, and placed at −80° C. for at least 30 minutes. Next, a CyQUANT® Cell Proliferation Assay (Thermo Fisher, Waltham, MA) was used for quantifying cells and for assessing cell proliferation and cytotoxicity following manufacturer protocol. For 3D cell culture, the cell viability was analyzed using CellTiter-Glo® 3D Cell Viability Assay (Promega, Madison, WI), and relative luminescence units (RLU) were measured. Based, on the fluorescence or luminescence values, the percentage of cell proliferation inhibition and half-maximal inhibitory concentration (IC50) was determined using the GraphPad Prism (Dotmatics, San Diego, CA). The resulting combination index (CI) data based on the median effect principle proposed by Chou and Talalay was generated using CalcuSyn Software Version 2.0 (Biosoft). At least 3 independent experiments were performed.
Three HCC cell lines (HLE, HLF, and PLC/PRF5) were tested and the concentration that inhibits proliferation of 50% cells (IC50) was determined. […]

Compound | IC50
CNC(=O)c1ccnc(NC(=O)N2CCC(Oc3ccccc3Cl)CC2)c1 [SSI-4, 2-{[4-(2-Chlorophenoxy)piperidine-1-carbonyl]amino}-N-methylpyridine-4-carboxamide] | 0.001 to 0.019 µM
COc1cc2nccc(Oc3ccc(NC(=O)C4(C(=O)Nc5ccc(F)cc5)CC4)cc3)c2cc1OC [cabozantinib] | 19 to 72 µM
COc1cc2nccc(Oc3ccc(NC(=O)NC4CC4)c(Cl)c3)c2cc1C(N)=O [lenvatinib] | 11 to 24 µM
